Results: patent publication US20240279241A1, “PYRIDO[4,3-D]PYRIMIDINE COMPOUNDS CAPABLE OF INHIBITING KRAS MUTANT PROTEINS” (Redx Pharma PLC, priority 2021, published 2024)
Read-outs that look alike come from different tables or passages of the source.

Assays:
Format in all cases: biochemical
KRAS WT = target: T1, KRAS WT (Homo sapiens, UniProt P01116); assay: HTRF nucleotide exchange assay (NEA), KRAS WT
T1 construct: Recombinant human RAS protein (2 nM); aa1-188 KRAS WT
Description: (§1) The capacity of compounds to bind KRAS G12D, other KRAS mutants and wildtype RAS isoforms was quantified using a HTRF nucleotide exchange assay. Recombinant human RAS protein (2 nM; aa1-188 KRAS WT, HRAS WT, NRAS WT, or KRAS containing the containing the G12D, G13D or Q61H amino acid substitutions, or 4 nM KRAS; aa1-188 containing the G12V, G12C, G12A or G12S amino acid substitution, an N-terminal 6×His-tag and leader sequence), and 2 nM Europium-labeled anti-6×His antibody were mixed in assay buffer (10 mM HEPES pH7.3, 150 mM NaCl, 5 mM MgCl2, 0.05% BSA, 0.0025% NP-40 and 100 mM KF) with various concentrations of compound in a 384-well plate and a volume of 5 uL. After a 60-minute incubation at room temperature, 5 ul of 200 nM EDA-GTP-DY647P1 (diluted in assay buffer) was added to the plate. Following 30-minute incubation at room temperature, time-resolved fluorescence was measured on a PerkinElmer Envision plate reader. DMSO (0.3%) and unlabeled […] (1 μM) or equivalent tool compound were used to generate the Max and Min assay signals, respectively. Data was analysed using a four-parameter logistic model to calculate IC50 values, with at least two independent replicates were performed for each compound.

KRAS G12D = target: T2, KRAS G12D (Homo sapiens, UniProt P01116, G12D); assay: HTRF nucleotide exchange assay (NEA), KRAS G12D; settings: recombinant human KRAS G12D aa1-188, 2 nM; lowest class = % inhibition at 10 μM
T2 construct: Recombinant human RAS protein (2 nM)
Description: as §1

KRAS G12C = target: T3, KRAS G12C (Homo sapiens, UniProt P01116, G12C); assay: HTRF nucleotide exchange assay (NEA), KRAS G12C
T3 construct: 4 nM KRAS; aa1-188 containing the G12V, G12C, G12A or G12S amino acid substitution
Description: as §1

KRAS G12V = target: T4, KRAS G12V (Homo sapiens, UniProt P01116, G12V); assay: HTRF nucleotide exchange assay (NEA), KRAS G12V
T4 construct: 4 nM KRAS; aa1-188 containing the G12V, G12C, G12A or G12S amino acid substitution
Description: as §1

[1] = recombinant human KRAS WT aa1-188, 2 nM, lowest class = % inhibition at 10 μM

T4 sequence (P01116 1-188 isoform P01116-2 G12V): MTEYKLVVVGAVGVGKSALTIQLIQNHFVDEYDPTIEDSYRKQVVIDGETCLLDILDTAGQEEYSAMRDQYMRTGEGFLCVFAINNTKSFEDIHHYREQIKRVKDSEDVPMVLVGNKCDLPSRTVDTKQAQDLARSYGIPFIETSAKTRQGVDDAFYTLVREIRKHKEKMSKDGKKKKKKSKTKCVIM
T2 sequence (P01116 1-188 isoform P01116-2 G12D): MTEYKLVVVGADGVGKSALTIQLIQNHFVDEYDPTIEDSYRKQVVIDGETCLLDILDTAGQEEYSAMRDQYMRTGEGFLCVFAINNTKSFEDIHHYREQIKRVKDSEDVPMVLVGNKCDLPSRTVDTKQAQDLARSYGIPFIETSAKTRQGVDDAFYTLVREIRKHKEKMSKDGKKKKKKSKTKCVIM
T3 sequence (P01116 1-188 isoform P01116-2 G12C): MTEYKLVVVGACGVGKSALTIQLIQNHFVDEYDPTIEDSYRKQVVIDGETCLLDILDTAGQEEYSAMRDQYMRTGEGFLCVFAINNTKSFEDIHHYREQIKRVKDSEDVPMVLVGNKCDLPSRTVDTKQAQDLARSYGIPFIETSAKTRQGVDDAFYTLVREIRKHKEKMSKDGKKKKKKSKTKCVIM
T1 sequence (P01116 1-188 isoform P01116-2): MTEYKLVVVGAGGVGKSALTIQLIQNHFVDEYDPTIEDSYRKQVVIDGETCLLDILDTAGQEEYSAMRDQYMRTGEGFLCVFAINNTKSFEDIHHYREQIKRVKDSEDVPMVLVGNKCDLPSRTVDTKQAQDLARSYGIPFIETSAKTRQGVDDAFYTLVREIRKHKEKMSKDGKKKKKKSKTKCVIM

| SMILES | IC50 (KRAS WT) [nM] | IC50 (KRAS G12D) [nM] | IC50 (KRAS G12C) [nM] | IC50 (KRAS G12V) [nM] | IC50 (KRAS WT; [1]) [nM] |
| --- | --- | --- | --- | --- | --- |
| C#Cc1c(F)ccc2cc(O)cc(-c3ncc4c(N5CCC(O)CC5)nc(OC[C@@]56CCCN5C[C@H](F)C6)nc4c3F)c12 (relative stereo) [Example 86, 1-[7-(8-ethynyl-7-fluoro-3-hydroxy-1-naphthyl)-8-fluoro-2-[[trans-2-fluoro-1,2,3,5,6,7-hexahydropyrrolizin-8-yl]methoxy]pyrido[4,3-d]pyrimidin-4-yl]piperidin-4-ol] | ≤ 10 | ≤ 10 | ≤ 10 | ≤ 10 |  |
| Oc1cc(-c2ncc3c(N4CCC5(CCNC5)CC4)nc(OCC45CCCN4CCC5)nc3c2F)c2ccccc2c1 [Example 2, 4-[4-(2,8-diazaspiro[4.5]decan-8-yl)-8-fluoro-2-(1,2,3,5,6,7-hexahydropyrrolizin-8-ylmethoxy)pyrido[4,3-d]pyrimidin-7-yl]naphthalen-2-ol] | 100 to 10000 | 100 to 10000 | 100 to 10000 |  |  |
| Oc1cc(-c2ncc3c(N4CCOCC4)nc(OCC45CCCN4CCC5)nc3c2F)c2ccccc2c1 [Example 5, 4-[8-fluoro-2-(1,2,3,5,6,7-hexahydropyrrolizin-8-ylmethoxy)-4-(morpholin-4-yl)pyrido[4,3-d]pyrimidin-7-yl]naphthalen-2-ol] | 100 to 10000 | 100 to 10000 | 100 to 10000 | 100 to 10000 |  |
| CC1CN(c2nc(OCC34CCCN3CCC4)nc3c(F)c(-c4cc(O)cc5ccccc45)ncc23)CCO1 (stereo not shown) [Example 6, 4-[8-fluoro-2-(1,2,3,5,6,7-hexahydropyrrolizin-8-ylmethoxy)-4-(2-methylmorpholin-4-yl)pyrido[4,3-d]pyrimidin-7-yl]naphthalen-2-ol] | 100 to 10000 | 100 to 10000 | 100 to 10000 | 100 to 10000 |  |
| CC1COCCCN1c1nc(OCC23CCCN2CCC3)nc2c(F)c(-c3cc(O)cc4ccccc34)ncc12 (stereo not shown) [Example 18, 4-[8-fluoro-2-(1,2,3,5,6,7-hexahydropyrrolizin-8-ylmethoxy)-4-(3-methyl-1,4-oxazepan-4-yl)pyrido[4,3-d]pyrimidin-7-yl]naphthalen-2-ol] | 10 to 100 | 10 to 100 | 10 to 100 |  |  |
| O=S1(=O)CCCN(c2nc(OCC34CCCN3CCC4)nc3c(F)c(-c4cc(O)cc5ccccc45)ncc23)CC1 [Example 24, 4-[4-(1,1-dioxo-1,4-thiazepan-4-yl)-8-fluoro-2-(1,2,3,5,6,7-hexahydropyrrolizin-8-ylmethoxy)pyrido [4,3-d]pyrimidin-7-yl]naphthalen-2-ol] | 100 to 10000 | 100 to 10000 | 10 to 100 |  |  |
| COC(=O)CCNc1nc(OCC23CCCN2CCC3)nc2c(F)c(-c3cc(O)cc4ccccc34)ncc12 [Example 25] | 100 to 10000 | 100 to 10000 | 100 to 10000 |  |  |
| CSCCCNc1nc(OCC23CCCN2CCC3)nc2c(F)c(-c3cc(O)cc4ccccc34)ncc12 [Example 26, 4-[8-fluoro-2-(1,2,3,5,6,7-hexahydropyrrolizin-8-ylmethoxy)-4-(3-methylsulfanylpropylamino)pyrido[4,3-d]pyrimidin-7-yl]naphthalen-2-ol] | 100 to 10000 | 100 to 10000 | 100 to 10000 |  |  |
| COCCCN(C)c1nc(OCC23CCCN2CCC3)nc2c(F)c(-c3cc(O)cc4ccccc34)ncc12 [Example 28, 4-[8-fluoro-2-(1,2,3,5,6,7-hexahydropyrrolizin-8-ylmethoxy)-4-[3-methoxypropyl(methyl)amino]pyrido[4,3-d]pyrimidin-7-yl]naphthalen-2-ol] | 100 to 10000 | 100 to 10000 | 100 to 10000 |  |  |
| CC1(C#N)CCN(c2nc(OCC34CCCN3CCC4)nc3c(F)c(-c4cc(O)cc5ccccc45)ncc23)CC1 [Example 63, 1-[8-fluoro-2-(1,2,3,5,6,7-hexahydropyrrolizin-8-ylmethoxy)-7-(3-hydroxy-1-naphthyl)pyrido[4,3-d]pyrimidin-4-yl]-4-methyl-piperidine-4-carbonitrile] | 100 to 10000 | 100 to 10000 |  |  |  |
| CC(=O)OCCCNc1nc(OCC23CCCN2CCC3)nc2c(F)c(-c3cc(O)cc4ccccc34)ncc12 [Example 64, 3-[[8-fluoro-2-(1,2,3,5,6,7-hexahydropyrrolizin-8-ylmethoxy)-7-(3-hydroxy-1-naphthyl)pyrido[4,3-d]pyrimidin-4-yl]amino]propyl acetate] | 100 to 10000 | 100 to 10000 |  |  |  |
| Oc1cc(-c2ncc3c(N4CC5CC4CC5O)nc(OCC45CCCN4CCC5)nc3c2F)c2ccccc2c1 (stereo not shown) [Example 66, 2-[8-fluoro-2-(1,2,3,5,6,7-hexahydropyrrolizin-8-ylmethoxy)-7-(3-hydroxy-1-naphthyl)pyrido[4,3-d]pyrimidin-4-yl]-2-azabicyclo[2.2.1] heptan-5-ol] | 100 to 10000 | 100 to 10000 |  |  |  |
| NS(=O)(=O)CCCNc1nc(OCC23CCCN2CCC3)nc2c(F)c(-c3cc(O)cc4ccccc34)ncc12 [Example 67] | 100 to 10000 | 100 to 10000 |  |  |  |
| CC1CN(c2nc(OCC34CCCN3CCC4)nc3c(F)c(-c4cc(O)cc5ccccc45)ncc23)CCC1O (stereo not shown) [Example 68, 1-[8-fluoro-2-(1,2,3,5,6,7-hexahydropyrrolizin-8-ylmethoxy)-7-(3-hydroxy-1-naphthyl)pyrido[4,3-d]pyrimidin-4-yl]-3-methyl-piperidin-4-ol] | 100 to 10000 | 100 to 10000 |  |  |  |
| CC1CC(O)CCN1c1nc(OCC23CCCN2CCC3)nc2c(F)c(-c3cc(O)cc4ccccc34)ncc12 (stereo not shown) [Example 69, 1-[8-fluoro-2-(1,2,3,5,6,7-hexahydropyrrolizin-8-ylmethoxy)-7-(3-hydroxy-1-naphthyl)pyrido[4,3-d]pyrimidin-4-yl]-2-methyl-piperidin-4-ol] | 100 to 10000 | 10 to 100 |  |  |  |
| Oc1cc(-c2ncc3c(N4CC5CC(C4)C5O)nc(OCC45CCCN4CCC5)nc3c2F)c2ccccc2c1 (stereo not shown) [Example 71, 3-[8-fluoro-2-(1,2,3,5,6,7-hexahydropyrrolizin-8-ylmethoxy)-7-(3-hydroxy-1-naphthyl)pyrido[4,3-d]pyrimidin-4-yl]-3-azabicyclo[3.1.1] heptan-6-ol] | 100 to 10000 | 100 to 10000 |  |  |  |
| Oc1cc(-c2ncc3c(N4CCC5CCC(C4)O5)nc(OCC45CCCN4CCC5)nc3c2F)c2ccccc2c1 (stereo not shown) [Example 80, 4-[8-fluoro-2-(1,2,3,5,6,7-hexahydropyrrolizin-8-ylmethoxy)-4-(9-oxa-3-azabicyclo[4.2.1]nonan-3-yl)pyrido [4,3-d]pyrimidin-7-yl]naphthalen-2-ol] | 100 to 10000 | 100 to 10000 |  |  |  |
| Fc1c(-c2cccc3[nH]ncc23)ncc2c(N3CCCOCC3)nc(OCC34CCCN3CCC4)nc12 [Example 92, 4-[8-fluoro-2-(1,2,3,5,6,7-hexahydropyrrolizin-8-ylmethoxy)-7-(1H-indazol-4-yl)pyrido[4,3-d]pyrimidin-4-yl]-1,4-oxazepane] |  | 100 to 10000 |  |  | > 10000 |
| Nc1nc2c(-c3ncc4c(N5CCCOCC5)nc(OCC56CCCN5CCC6)nc4c3F)cccc2s1 [Example 93, 4-[8-fluoro-2-(1,2,3,5,6,7-hexahydropyrrolizin-8-ylmethoxy)-4-(1,4-oxazepan-4-yl)pyrido[4,3-d]pyrimidin-7-yl]-1,3-benzothiazol-2-amine] | 100 to 10000 | 100 to 10000 |  |  |  |
| Fc1c(-c2cccc3[nH]ncc23)ncc2c(N3CCCOCC3)nc(OC[C@@]34CCCN3C[C@H](F)C4)nc12 [Example 95, 4-[8-fluoro-7-(1H-indazol-4-yl)-2-[[trans-2-fluoro-1,2,3,5,6,7-hexahydropyrrolizin-8-yl]methoxy]pyrido[4,3-d]pyrimidin-4-yl]-1,4-oxazepane] |  | 100 to 10000 |  |  | > 10000 |
